Measurements: patent publication US9433622B2, “Pyrimidine compounds useful in the treatment of diseases mediated by IKKE and/or TBK1 mechanisms” (DOMAINEX LIMITED, priority 2013, dated 2016)
Read-outs that look alike come from different tables or passages of the source.

How the values were obtained:
TBK1 = TBK1 (Homo sapiens (Human), UniProt Q9UHD2); test: Lanthascreen TR-FRET kinase inhibition assay, TBK1; assay type: biochemical; settings: 20 μM ATP (apparent Km), 8 nM kinase, 2.5 h
Method in brief: (§1)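 TR-FRET: terbium phosphospecific antibody detects phosphorylation of 400 nM fluorescein-IkBα peptide, 20 μM ATP, 20 °C, HEPES pH 7.5 with 3% DMSO. IKKε at 2 nM, 1 h reaction; TBK1 at 8 nM, 2.5 h reaction; started by kinase addition.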

IKKε = IKKε (Homo sapiens (Human), UniProt Q14164); test: Lanthascreen TR-FRET kinase inhibition assay, IKKε; assay type: biochemical
Chain of IKKε (Q14164 whole entry): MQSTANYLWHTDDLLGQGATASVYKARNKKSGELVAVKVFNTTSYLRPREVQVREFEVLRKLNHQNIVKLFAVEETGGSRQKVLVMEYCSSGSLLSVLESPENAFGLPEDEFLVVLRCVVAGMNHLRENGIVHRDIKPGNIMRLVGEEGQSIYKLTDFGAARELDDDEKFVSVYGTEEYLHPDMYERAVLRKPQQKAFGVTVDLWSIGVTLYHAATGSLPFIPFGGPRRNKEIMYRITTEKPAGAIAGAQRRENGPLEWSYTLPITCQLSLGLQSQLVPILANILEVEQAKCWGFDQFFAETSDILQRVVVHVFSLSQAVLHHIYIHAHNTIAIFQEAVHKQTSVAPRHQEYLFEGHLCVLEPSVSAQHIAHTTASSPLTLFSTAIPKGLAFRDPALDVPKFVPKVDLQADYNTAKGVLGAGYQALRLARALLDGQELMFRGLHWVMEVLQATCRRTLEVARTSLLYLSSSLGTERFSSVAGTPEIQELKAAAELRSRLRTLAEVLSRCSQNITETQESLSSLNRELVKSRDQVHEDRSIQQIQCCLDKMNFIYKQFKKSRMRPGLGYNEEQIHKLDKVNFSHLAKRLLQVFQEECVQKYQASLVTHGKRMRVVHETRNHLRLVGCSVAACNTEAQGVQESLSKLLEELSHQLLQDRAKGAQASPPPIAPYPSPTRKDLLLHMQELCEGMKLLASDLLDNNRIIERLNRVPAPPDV
Method in brief: as §1

[1] = 20 μM ATP (apparent Km), 2 nM kinase, 1 h

Chain of TBK1 (Q9UHD2 whole entry): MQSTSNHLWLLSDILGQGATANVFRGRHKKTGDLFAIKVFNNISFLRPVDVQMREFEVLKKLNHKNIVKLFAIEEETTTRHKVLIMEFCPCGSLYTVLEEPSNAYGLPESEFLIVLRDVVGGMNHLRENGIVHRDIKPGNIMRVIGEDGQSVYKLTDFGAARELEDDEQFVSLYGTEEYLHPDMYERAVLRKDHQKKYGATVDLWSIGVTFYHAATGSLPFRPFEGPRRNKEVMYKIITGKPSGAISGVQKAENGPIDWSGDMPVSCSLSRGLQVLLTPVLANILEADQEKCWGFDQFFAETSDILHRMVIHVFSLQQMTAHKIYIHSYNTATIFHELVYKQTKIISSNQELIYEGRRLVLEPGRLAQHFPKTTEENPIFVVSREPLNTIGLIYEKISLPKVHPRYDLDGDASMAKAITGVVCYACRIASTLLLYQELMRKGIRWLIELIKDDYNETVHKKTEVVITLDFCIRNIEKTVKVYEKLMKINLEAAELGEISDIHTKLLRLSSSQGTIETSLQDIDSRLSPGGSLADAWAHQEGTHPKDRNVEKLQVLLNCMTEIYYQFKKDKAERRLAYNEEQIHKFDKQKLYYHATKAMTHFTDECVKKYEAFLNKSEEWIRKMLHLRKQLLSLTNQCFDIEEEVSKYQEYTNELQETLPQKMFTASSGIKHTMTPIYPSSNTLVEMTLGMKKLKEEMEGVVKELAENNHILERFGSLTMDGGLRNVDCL

Row | Structure (SMILES) | IC50 (TBK1) [nM] | IC50 (IKKε; [1]) [nM] | IC50 (IKKε) [nM]
1 | N#Cc1cc(-c2ccnc(Nc3ccc(CN4CCOCC4)nc3)n2)cnc1NCC1CCOC1 (stereo not drawn) [DMX-138, 5-[2-(6-Morpholin-4-ylmethyl-pyridin-3-ylamino)-pyrimidin-4-yl]-2-[(tetrahydro-furan-3-ylmethyl)-amino]-nicotinonitrile] | < 100 | < 1000 | –
2 | N#Cc1nc(-c2ccnc(Nc3ccc(CN4CCOCC4)nc3)n2)ccc1N1CC[C@H](F)C1 [DMX-143, 3-((S)-3-Fluoro-pyrrolidin-1-yl)-6-[2-(6-morpholin-4-ylmethyl-pyridin-3-ylamino)-pyrimidin-4-yl]-pyridine-2-carbonitrile] | < 15 | < 15 | –
3 | N#Cc1nc(-c2ccnc(Nc3ccc(CN4CCOCC4)nc3)n2)ccc1N1CC[C@H](O)C1 [DMX-144, 3-((S)-3-Hydroxy-pyrrolidin-1-yl)-6-[2-(6-morpholin-4-ylmethyl-pyridin-3-ylamino)-pyrimidin-4-yl]-pyridine-2-carbonitrile] | < 30 | < 30 | –
4 | N#Cc1nc(-c2ccnc(Nc3ccc(NC(=O)CN4CC[C@H](F)C4)nc3)n2)ccc1N1CC[C@H](F)C1 [DMX-145, N-(5-{4-[6-Cyano-5-((S)-3-fluoro-pyrrolidin-1-yl)-pyridin-2-yl]-pyrimidin-2-ylamino}-pyridin-2-yl)-2-((S)-3-fluoro-pyrrolidin-1-yl)-acetamide] | < 30 | < 30 | –
5 | N#Cc1nc(-c2ccnc(Nc3ccc(NC(=O)CN4CC[C@H](F)C4)nc3)n2)ccc1N1CC[C@H](O)C1 [DMX-146, N-(5-{4-[6-Cyano-5-((S)-3-hydroxy-pyrrolidin-1-yl)-pyridin-2-yl]-pyrimidin-2 ylamino}-pyridin-2-yl)-2-((S)-3-fluoro-pyrrolidin-1-yl)-acetamide] | < 30 | < 100 | –
6 | N#Cc1nc(-c2ccnc(Nc3ccc(OCCN4CC[C@H](F)C4)nc3)n2)ccc1N1CC[C@H](F)C1 [DMX-147, 3-((S)-3-Fluoro-pyrrolidin-1-yl)-6-(2-{6-[2-((S)-3-fluoro-pyrrolidin-1-yl)-ethoxy]-pyridin-3-ylamino}-pyrimidin-4-yl)-pyridine-2-carbonitrile] | < 30 | < 100 | –
7 | N#Cc1nc(-c2ccnc(Nc3ccc(OCCN4CC[C@H](F)C4)nc3)n2)ccc1N1CC[C@H](O)C1 [DMX-148, 6-(2-{6-[2-((S)-3-Fluoro-pyrrolidin-1-yl)-ethoxy]-pyridin-3-ylamino}-pyrimidin-4-yl)-3-((S)-3-hydroxy-pyrrolidin-1-yl)-pyridine-2-carbonitile] | < 100 | < 100 | –
8 | C[C@H]1COCCN1Cc1ccc(Nc2nccc(-c3ccc(N4CC[C@H](F)C4)c(C#N)n3)n2)cn1 [DMX-149, 3-((S)-3-Fluoro-pyrrolidin-1-yl)-6-{2-[6-((S)-3-methyl-morpholin-4-ylmethyl)-pyridin-3-ylamino]-pyrimidin-4-yl}-pyridine-2-carbonitrile] | < 15 | – | < 15
9 | Cc1nccn1Cc1ccc(Nc2nccc(-c3ccc(N4CC[C@H](F)C4)c(C#N)n3)n2)cn1 [DMX-151, 3-((S)-3-Fluoro-pyrrolidin-1-yl)-6-{2-[6-(2-methyl-imidazol-1-ylmethyl)-pyridin-3-ylamino]-pyrimidin-4-yl}-pyridine-2-carbonitrile] | < 30 | < 30 | –
10 | COCCN(C)Cc1ccc(Nc2nccc(-c3ccc(N4CC[C@H](F)C4)c(C#N)n3)n2)cn1 [DMX-152, 3-((S)-3-Fluoro-pyrrolidin-1-yl)-6-[2-(6-{[(2-methoxy-ethyl)-methyl-amino]-methyl}-pyridin-3-ylamino)-pyrimidin-4-yl]-pyridine-2-carbonitrile] | < 30 | < 30 | –
11 | N#Cc1nc(-c2nc(Nc3ccc(N4CCOCC4)cc3)ncc2F)ccc1N1CC[C@H](F)C1 [DMX-153, 6-[5-Fluoro-2-(4-morpholin-4-yl-phenylamino)-pyrimidin-4-yl]-3-((S)-3-fluoro-pyrrolidin-1-yl)-pyridine-2-carbonitrile] | < 15 | < 15 | –
12 | COCCN(C)c1ccc(-c2ccnc(Nc3cnn(C)c3)n2)nc1C#N [DMX-155] | < 1000 | < 1000 | –
13 | N#Cc1nc(-c2ccnc(Nc3ccc(CN4CCNC(=O)C4)nc3)n2)ccc1N1CC[C@H](F)C1 [DMX-156, 3-((S)-3-Fluoro-pyrrolidin-1-yl)-6-{2-[6-(3-oxo-piperazin-1-ylmethyl)-pyridin-3-ylamino]-pyrimidin-4-yl}-pyridine-2-carbonitrile] | < 15 | < 15 | –
14 | N#Cc1cc(-c2ccnc(Nc3ccc(CN4CCOCC4)nc3)n2)cnc1N1CCC(CCC(N)=O)C1 (stereo not drawn) [DMX-162, 3-(1-{3-Cyano-5-[2-(6-morpholin-4-ylmethyl-pyridin-3-ylamino)-pyrimidin-4-yl]-pyridin-2-yl}-pyrrolidin-3-yl)-propionamide] | < 100 | < 30 | –
15 | CN(c1ncc(-c2ccnc(Nc3ccc(CN4CCOCC4)nc3)n2)cc1C#N)C1CCOC1 (stereo not drawn) [DMX-163, 2-[Methyl-(tetrahydro-furan-3-yl)-amino]-5-[2-(6-morpholin-4-ylmethyl-pyridin-3-ylamino)-pyrimidin-4-yl]-nicotinonitrile] | < 100 | < 100 | –
16 | N#Cc1nc(-c2ccnc(Nc3ccc(CN4CCOCC4)nc3)n2)ccc1N1CCCOCC1 [DMX-164, 6-[2-(6-Morpholin-4-ylmethyl-pyridin-3-ylamino)-pyrimidin-4-yl]-3-[1,4]oxazepan-4-yl-pyridine-2-carbonitrile] | < 100 | < 30 | –
17 | N#Cc1nc(-c2ccnc(Nc3ccc(CN4CCOCC4)nc3)n2)ccc1N1CCC2(COC2)C1 [DMX-165, 6-[2-(6-Morpholin-4-ylmethyl-pyridin-3-ylamino)-pyrimidin-4-yl]-3-(2-oxa-6-aza-spiro[3.4]oct-6-yl)-pyridine-2-carbonitrile] | < 30 | < 15 | –
18 | N#Cc1nc(-c2ccnc(Nc3ccc(NC(=O)CN4CCOCC4)nc3)n2)ccc1N1CCCOCC1 [DMX-166, N-{5-[4-(6-Cyano-5-[1,4]oxazepan-4-yl-pyridin-2-yl)-pyrimidin-2-ylamino]-pyridin-2-yl)-2-morpholin-4-yl-acetamide] | < 100 | < 100 | –

The remaining lines, values ahead:

Row | IC50 (TBK1) [nM] | IC50 (IKKε; [1]) [nM] | IC50 (IKKε) [nM] | Structure (SMILES)
19 | < 1000 | < 1000 | – | CN(CC1CCOC1)c1ncc(-c2ccnc(Nc3ccc(CN4CCOCC4)nc3)n2)cc1C#N (stereo not drawn) [DMX-137, 2-[Methyl-(tetrahydro-furan-3-ylmethyl)-amino]-5-[2-(6-morpholin-4-ylmethyl-pyridin-3-ylamino)-pyrimidin-4-yl]-nicotinonitrile]
20 | < 100 | < 100 | – | N#Cc1cc(-c2ccnc(Nc3ccc(CN4CCOCC4)nc3)n2)cnc1NC1CCCC1 [DMX-139, 2-Cyclopentylamino-5-[2-(6-morpholin-4-ylmethyl-pyridin-3-ylamino)-pyrimidin-4-yl]-nicotinonitrile]
21 | < 1000 | < 1000 | – | COCCN(C)c1ncc(-c2ccnc(Nc3ccc(CN4CCOCC4)nc3)n2)cc1C#N [DMX-140, 2-[(2-Methoxy-ethyl]-methyl-amino]-5-[2-(6-morpholin-4-ylmethyl-pyridin-3-ylamino)-pyrimidin-4-yl]-nicotinonitrile]
22 | < 100 | < 100 | – | N#Cc1nc(-c2ccnc(Nc3ccc(NC(=O)CN4CCOCC4)nc3)n2)ccc1N1CC[C@H](O)C1 [DMX-141, N-(5-{4-[6-Cyano-5-((S)-3-hydroxy-pyrrolidin-1-yl)-pyridin-2-yl]-pyrimidin-2-ylamino}-pyridin-2-yl)-2-morpholin-4-yl-acetamide]
23 | < 15 | < 15 | – | N#Cc1nc(-c2ccnc(Nc3ccc(NC(=O)CN4CCOCC4)nc3)n2)ccc1N1CC[C@H](F)C1 [DMX-142]
24 | < 15 | < 15 | – | N#Cc1nc(-c2ccnc(Nc3ccc(CN4CC[C@H](F)C4)nc3)n2)ccc1N1CC[C@H](F)C1 [DMX-150, 3-((S)-3-Fluoro-pyrrolidin-1-yl)-6-{2-[6-((S)-3-fluoro-pyrrolidin-1-ylmethyl)-pyridin-3-ylamino]-pyrimidin-4-yl}-pyridine-2-carbonitrile]
25 | < 30 | < 100 | – | COCCNCc1ccc(Nc2nccc(-c3ccc(N4CC[C@H](F)C4)c(C#N)n3)n2)cn1 [DMX-157, 3-((S)-3-Fluoro-pyrrolidin-1-yl)-6-(2-{6-[(2-methoxy-ethylamino)-methyl]-pyridin-3-ylamino}-pyrimidin-4-yl)-pyridine-2-carbonitrile]
26 | < 100 | < 100 | – | N#Cc1cc(-c2ccnc(Nc3ccc(CN4CCOCC4)nc3)n2)cnc1N1CCC(CC(N)=O)C1 (stereo not drawn) [DMX-158, 2-(1-{3-Cyano-5-[2-(6-morpholin-4-ylmethyl-pyridin-3-ylamino)-pyrimidin-4-yl]-pyridin-2-yl}-pyrrolidin-3-yl)-acetamide]
27 | < 1000 | < 1000 | – | CC1CN(c2ncc(-c3ccnc(Nc4ccc(CN5CCOCC5)nc4)n3)cc2C#N)CCO1 (stereo not drawn) [DMX-159, 2-(2-Methyl-morpholin-4-yl)-5-[2-(6-morpholin-4-ylmethyl-pyridin-3-ylamino)-pyrimidin-4-yl]-nicotinonitrile]
28 | < 1000 | < 100 | – | COCC1CCN(c2ncc(-c3ccnc(Nc4ccc(CN5CCOCC5)nc4)n3)cc2C#N)C1 (stereo not drawn) [DMX-160, 2-(3-Methoxymethyl-pyrrolidin-1-yl)-5-[2-(6-morpholin-4-ylmethyl-pyridin-3-ylamino)-pyrimidin-4-yl]-nicotinonitrile]
29 | < 100 | < 30 | – | N#Cc1cc(-c2ccnc(Nc3ccc(CN4CCOCC4)nc3)n2)cnc1N1CCC(OC(F)F)C1 (stereo not drawn) [DMX-161, 2-(3-Difluoromethoxy-pyrrolidin-1-yl)-5-[2-(6-morpholin-4-ylmethyl-pyridin-3-ylamino)-pyrimidin-4-yl]-nicotinonitrile]
30 | < 100 | < 30 | – | N#Cc1nc(-c2ccnc(Nc3ccc(NC(=O)CN4CCOCC4)nc3)n2)ccc1N1CCC2(COC2)C1 [DMX-167, N-(5-{4-[6-Cyano-5-(2-oxa-6-aza-spiro[3.4]oct-6-yl)-pyridin-2-yl]-pyrimidin-2-ylamino}-pyridin-2-yl)-2-morpholin-4-yl-acetamide]
